Data reported in the METLIN SMRT retention time set (Domingo-Almenara et al. 2019).

Test: gradient 5% acetonitrile 3 min, to 50% in 2 min, to 85% in 15 min, held 3 min, 100 µL/min
Conditions: column: Zorbax Extend-C18 2.1 x 50 mm; eluents: water / acetonitrile, 0.1% formic acid
Method in brief: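 In both positive and negative ionization mode, a quadrupole time-of-flight mass spectrometer coupled to HPLC analyzed pure standards run in mixtures of ~100 molecules. The Zorbax Extend-C18 column (2.1 × 50 mm, 1.8 μm) was operated at 100 μL/min with water and acetonitrile, each containing 0.1% formic acid. The dead volume was 40 μL and the dwell volume 900 μL. Retention time came from adduct peaks that were computationally picked and individually inspected by hand.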

| Compound | RP-LC retention time [s] |
| --- | --- |
| O=C(Nc1cnn(-c2ncc(N3CCCC3)cn2)c1)c1ccc(C(F)(F)F)cc1 | 941 |
| CC(=O)Nc1cccc2c(C(=O)N3CCN(c4ccccc4Cl)CC3)ccnc12 | 946 |
| Cc1ccccc1NC(=O)c1cc(C)n2nc(-c3ccsc3)cc2n1 | 1240 |
| CCOc1ccccc1NC(=O)Cn1c(CC)nc2c(c1=O)CN(Cc1ccccc1)CC2 | 687 |
| CC(C)CNC(=O)N1CC(Oc2ccc(-c3nc(-c4ccccc4)no3)cc2)C1 | 1060 |
| CCc1nnc(-c2ccc(=O)n(CC(=O)Nc3ccc(C)cc3F)c2)o1 | 692 |
| O=C(Nc1ccccc1Cl)c1c(O)c2cccnc2n(-c2ccc(F)cc2)c1=O | 1270 |
| COc1ccc(-c2noc(Cn3ncn4nc(-c5ccc(F)cc5)cc4c3=O)n2)cc1OC | 1000 |
| COc1ccccc1NC(=O)C(C)C1CCN(C(=O)Nc2ccc(Cl)cc2)CC1 (centres undefined) | 938 |
| CCc1nc(-n2cccc2)sc1C(=O)Nc1ccc(OC)c(OC)c1 | 965 |
| Cc1nnc(-c2ccc3ccn(CC(=O)Nc4ccccn4)c3c2)o1 | 670 |
| COC(=O)C1=CN(c2cc(F)ccc2C)c2ccccc2S1(=O)=O | 832 |
| Cn1cnc(S(=O)(=O)N2CCCCC2c2nc(-c3ccncc3)n[nH]2)c1 (centres undefined) | 646 |
| COc1cccc(-c2nc(-c3ccc4c(c3)nnn4CCN(C)C)no2)c1 | 595 |
| CCOc1ccc(OCC)c(NC(=O)C2CCN(C(=O)C3Sc4ccccc4NC3=O)CC2)c1 (centres undefined) | 882 |
| COC(=O)c1ccc(C(=O)Nc2nc3c(s2)CCc2ccccc2-3)cc1 | 1120 |
| Cc1ccc(C(C)NC(=O)c2ccc(-c3cccnc3)nc2)c(C)c1 (centres undefined) | 745 |
| CCc1ccc(C(=O)Nc2ccc3c(c2)Sc2ncccc2C(=O)N3CC)cc1 | 936 |
| CCOC(=O)C1=C(CN2CCN(Cc3ccc4c(c3)OCO4)CC2)NC(=O)NC1c1ccc(C)cc1 (centres undefined) | 585 |
| COc1cc(O)ccc1-c1nc2cccc(C)n2c1Nc1ccccc1C | 667 |

| Compound | RP-LC retention time [s] |
| --- | --- |
| O=C(Nc1nnc(C2CC(=O)N(c3ccccc3)C2)o1)c1cccc(F)c1 (centres undefined) | 711 |
| O=C(Nc1ccc2c(c1)OCCO2)C1CCCN(C(=O)c2cc(-c3ccncc3)n[nH]2)C1 (centres undefined) | 584 |
| O=S(=O)(NCc1cccnc1)c1ccc(Cl)c(-c2nnc(-c3ccccc3)o2)c1 | 707 |
| O=C(Cn1nc2c(cc1=O)CCCCC2)Nc1nc(-c2ccccn2)cs1 | 655 |
| Cc1ccc(Cn2cc(C(=O)O)c(S(=O)(=O)N3CCSCC3)n2)cc1 | 861 |
| Cc1ccc(C)c(NC(=O)NC2CCN(c3ccccc3)C2=O)c1 (centres undefined) | 823 |
| Cc1ccc2cc(CCC(=O)N3CCC4(CC3)OCCO4)c(=O)[nH]c2c1 | 688 |
| Cn1c(=O)sc2cc(S(=O)(=O)N3CCC(C(=O)Nc4cccc(F)c4)CC3)ccc21 | 885 |
| Cc1ccc(NC(=O)Cn2nc(N3CCCC3)c3ccccc3c2=O)cc1 | 938 |
| CN(C)CCNC(=O)CN1C(=O)C2CCCCN2c2ccc(C(=O)N3CCCC3)cc21 (centres undefined) | 596 |
| CC1Oc2ccc(-c3csc(NC(=O)c4cccc(Br)c4)n3)cc2N(C)C1=O (centres undefined) | 960 |
| CCOc1ccc(CNC(=O)CCc2c(-c3ccc(Br)cc3)nc3ccccn23)cc1 | 717 |
| CCOc1ccc(CC(=O)Nc2ccc3c(c2)Sc2ncccc2C(=O)N3C)cc1 | 931 |
| O=C(Cc1c(Sc2ccccc2)[nH]c2ccccc12)NCCN1CCOCC1 | 654 |
| Fc1ccc(OCc2nc(-c3ccc4c(c3)ncn4CCN3CCCC3)no2)cc1 | 657 |
| O=C(NC1CCN(Cc2ccccc2)CC1)c1csc(-c2ccc(N3CCCC3)nc2)n1 | 565 |
| CCCNC(=O)CC1=C2CCCCC2N(C)C1=O (centres undefined) | 638 |
| COc1ccccc1OCC(=O)N1CCN(c2nc(CN3CCOCC3)cs2)CC1 | 613 |
| Cc1ccc(Sc2nccnc2N2CCC(C(=O)N3CCOCC3)CC2)cc1 | 881 |
| CSc1ccc(-c2nc3cnccn3c2Nc2cccc(C(=O)N3CCCCC3)c2)cc1 | 807 |

| Compound | RP-LC retention time [s] |
| --- | --- |
| O=C(NCc1cc(F)cc(F)c1)c1cn2c(n1)CCCC2 | 599 |
| COCCCNCc1ccc(-c2ccccc2Cl)o1 | 672 |
| CCn1c(CCNC(=O)c2ccc(F)cc2F)nc2cccnc21 | 641 |
| O=C(CNC(=O)c1ccc(C(F)(F)F)cc1)Nc1nc2ccccc2[nH]1 | 688 |
| CCn1cc(-c2nc(C)c(C(=O)Nc3ccc(OC)cc3OC)s2)c2cccnc21 | 1050 |
| CO/N=C1/CN(c2nc3c(cc2F)c(=O)c(C(=O)O)cn3C2CC2)CC1CN (centres undefined) | 636 |
| Cc1cc(C)c(CN2CC(CNC(=O)N3CCCC3)C3(CCOCC3)C2)c(C)c1 (centres undefined) | 635 |
| CC(Cc1ccco1)NC(=O)CCCn1c2ccccc2c2cnn(C)c(=O)c21 (centres undefined) | 775 |
| COc1ccc(-c2cn3ccn(-c4ccc(Cl)cc4)c(=O)c3n2)cc1 | 828 |
| Cc1ncc2c(n1)CCCN(CC(=O)N1CCCC1)C2=O | 579 |
| COC(=O)CNC(=O)N1c2ccccc2CC1c1nc(C(C)C)no1 (centres undefined) | 834 |
| O=C(c1ccco1)N1CCCC(Nc2ncnc3c2CCC3)C1 (centres undefined) | 570 |
| COc1ccc(NC(=O)CSc2nc3c(cc2C#N)C(=O)CC(C)(C)C3)c(OC)c1 | 892 |
| CSc1ncccc1C(=O)Nc1cccc(OCc2nnc(-c3ccccc3)o2)c1 | 908 |
| Cc1cc(C)cc(NC(=O)Cn2c(N3CCOCC3)nc(C)cc2=O)c1 | 711 |
| CCCN1C(=O)c2cc(C(=O)NCc3ccc(C)cc3)nn2CC1(C)C(=O)NC1CCCC1 (centres undefined) | 854 |
| CCC(C)NC(=O)c1ccc2c(ccn2C)c1 (centres undefined) | 779 |
| Cn1cc(-c2ccccc2)cc1C(=O)NCc1ccc(N2CCOCC2)cc1 | 892 |

Continued, values first:

| RP-LC retention time [s] | Compound |
| --- | --- |
| 827 | O=C(c1ccc(Br)cc1)N1CCC(n2c(-c3ccco3)nc3cccnc32)C1 (centres undefined) |
| 1180 | Cc1cc(C)c(NC(=O)Cn2nc(N3CCCC(C)C3)c3ccccc3c2=O)c(C)c1 (centres undefined) |
| 1430 | Cc1cccc(OCc2nc(-c3cccc(-c4csc(C5CC5)n4)c3)no2)c1 |
| 1100 | Cc1cc(-c2c(C)sc(C)c2S(=O)(=O)Nc2ccc(C)c(Cl)c2)n[nH]1 |
| 760 | O=C(Cc1ccc([N+](=O)[O-])cc1)NC1CC(=O)N(c2ccc(Cl)cc2)C1 (centres undefined) |
| 888 | Cc1cc(C)cc(C(=O)Nc2ccc3c(c2)Sc2ncccc2C(=O)N3C)c1 |
| 619 | CCN(Cc1ccc(OC)cc1)Cc1cc(=O)n2ccc(C)cc2n1 |
| 878 | CCCS(=O)(=O)Nc1ccc(F)c(C(=O)c2c[nH]c3ncc(Cl)cc23)c1F |
| 510 | COCC1CN(Cc2cccc3[nH]ccc23)CC12CCNCC2 (centres undefined) |
| 1160 | COC(=O)c1cc(C)nc2c1c(=O)n(Cc1ccc(Cl)cc1)c(=O)n2Cc1ccco1 |
| 778 | Cc1noc(C)c1CNC(=O)c1cc(Cl)ccc1F |
| 784 | O=S(=O)(c1cccc(-c2nc(-c3ccccc3)no2)c1)N1CCC2(CC1)OCCO2 |
| 784 | COc1ccc(Cl)cc1NC(=O)C1CCN(C(=O)c2cccn2-c2cccnc2)CC1 |
| 892 | CCCCN1C(=O)CC(C(=O)OCC)=C1C |
| 640 | Cc1ccc2c(Nc3ccc(O)cc3)c(C(=O)OC(C)C)cnc2n1 |
| 1430 | CN1C(=O)c2ccccc2Sc2ccc(NC(=O)N3CCC(C(N)=O)CC3)cc21 |

| RP-LC retention time [s] | Compound |
| --- | --- |
| 969 | O=C(NCCc1ccc(Cl)cc1)c1nc(Cn2c(=O)oc3ccccc32)no1 |
| 823 | COc1cc(=O)n2c(c1C(=O)Nc1ccc(Cl)c(Cl)c1)CCCC2 |
| 1050 | Cc1cc2nc(C(=O)Nc3cc(F)ccc3C)cc(C)n2n1 |
| 634 | CCc1ccc(-n2nnc(C(=O)N3CCC(N4CCCCC4)CC3)c2-c2ccncc2)cc1 |
| 1170 | CCN(CC)S(=O)(=O)c1ccc(Cl)c(-c2nnc(-c3cccc(C)c3)o2)c1 |
| 746 | Cc1sc(NC(=O)c2ccccc2)c(C(Nc2ccccn2)c2cccs2)c1C (centres undefined) |
| 814 | CCC(C)NC(=O)NCCC1CCN(S(=O)(=O)c2ccc(F)cc2)CC1 (centres undefined) |
| 896 | CN(CCc1noc(-c2ccccc2)n1)C(=O)NCCc1ccccc1 |
| 826 | O=C(Nc1ccc2c(c1)OCCO2)c1coc2ccccc12 |
| 705 | Cc1ccc2nc(NC(=O)CSc3nnc(CNC(=O)c4ccco4)o3)sc2c1 |
| 557 | CNC(=O)c1cc(N(C)C)nc2c(C)cccc12 |
| 750 | CC(=O)N1CCc2cc(N3CC(C(=O)NCc4ccc(C)c(C)c4)CC3=O)ccc21 (centres undefined) |
| 650 | CCc1ccc(NC(=O)c2ccc(=O)n(CCN3CCCC3)c2)cc1 |
| 690 | CCCC(NC(=O)c1ccc(F)cc1)C(=O)Nc1nc2ccccc2[nH]1 (centres undefined) |
| 735 | CC(=O)N1CCc2cc(N3CC(C(=O)Nc4ccc(Cl)cc4C)CC3=O)ccc21 (centres undefined) |
